Where two headings read alike, the source gives them in different places.
Key:
HIV-1 strain LAI = test: Cellular anti-viral assay in MT4-LTR-EGFP cells, wild type HIV-1 strain LAI; format: cell-based; settings: Human immunodeficiency virus 1, 72 h, read-out: Activity class for HIV-1-LAI test
Protocol: (§1) The compounds were tested in a cellular assay using the MT4-LTR-EGFP cells for anti-viral activity. […] The cellular assay was performed according to the following procedure.
(§2) HIV- or mock-infected MT4-LTR-EGFP cells were incubated for three days in the presence of various concentrations of the inhibitor. Upon infection, the GFP reporter is activated by the viral tat protein. At the end of the incubation period, the GFP signal was measured. In the virus control samples (in the absence of any inhibitor) the maximal fluorescent signal was obtained. The inhibitory activity of the compound was monitored on the virus-infected cells and was expressed as EC50 and EC90. These values represent the amount of the compound required to protect 50% and 90%, respectively, of the cells from virus infection. The toxicity of the compound was measured on the mock-infected cells and was expressed as CC50, which represents the concentration of compound required to inhibit the growth of the cells by 50%. The selectivity index (SI) (ratio CC50/EC50) is an indication of the selectivity of the anti-HIV activity of the inhibitor.

HIV-1-MDR = test: Cellular anti-viral assay in MT4-LTR-EGFP cells, multi-drug resistant HIV-1 virus; format: cell-based; settings: Human immunodeficiency virus 1, 72 h, read-out: Activity class for HIV-1-MDR test
Protocol: as §1, §2

[1] = MT4-LTR-EGFP cells, three days incubation, GFP signal, average EC50 used where more than one run

| SMILES | EC50 (HIV-1 strain LAI; [1]) [µM] | EC50 (HIV-1-MDR) [µM] | EC50 (HIV-1 strain LAI) [µM] |
| --- | --- | --- | --- |
| COc1ccc(N(C)C(=O)c2ccc(C3=NN4C(C(=O)c5ccc(F)cc5)Oc5ccccc5C4C3)cc2)cc1 (centres unmarked) [Compound 28] | < 1 | < 1 |  |
| O=C(Nc1cccnc1)c1ccc(C2=NN3C(C(=O)c4ccc(F)cc4)Oc4ccccc4C3C2)cc1 (centres unmarked) [Compound 29] | 1 to 10 | < 1 |  |
| O=C(NCc1cccs1)c1ccc(C2=NN3C(C(=O)c4ccc(F)cc4)Oc4ccccc4C3C2)cc1 (centres unmarked) [Compound 30] | > 10 | > 10 |  |
| O=C(NCc1ccco1)c1ccc(C2=NN3C(C(=O)c4ccc(F)cc4)Oc4ccccc4C3C2)cc1 (centres unmarked) [Compound 31] | 1 to 10 | 1 to 10 |  |
| CCNC(=O)c1ccc(C2=NN3C(C(=O)c4ccc(F)cc4)Oc4ccccc4C3C2)cc1 (centres unmarked) [Compound 32] | > 10 | 1 to 10 |  |
| CC(C)NC(=O)c1ccc(C2=NN3C(C(=O)c4ccc(F)cc4)Oc4ccccc4C3C2)cc1 (centres unmarked) [Compound 33] | < 1 | < 1 |  |
| CN1CCC(NC(=O)c2ccc(C3=NN4C(C(=O)c5ccc(F)cc5)Oc5ccccc5C4C3)cc2)CC1 (centres unmarked) [Compound 34] | 1 to 10 | > 10 |  |
| CN1CCN(C(=O)c2ccc(C3=NN4C(C(=O)c5ccc(F)cc5)Oc5ccccc5C4C3)cc2)CC1 (centres unmarked) [Compound 35] | < 1 | > 10 |  |
| CN(C(=O)c1ccc(C2=NN3C(C(=O)c4ccc(F)cc4)Oc4ccccc4C3C2)cc1)C1CCCCC1 (centres unmarked) [Compound 36] | < 1 |  |  |
| C=CCN(C(=O)c1ccc(C2=NN3C(C(=O)c4ccc(F)cc4)Oc4ccccc4C3C2)cc1)C1CCCCC1 (centres unmarked) [Compound 37] | 1 to 10 | > 10 |  |
| O=C(NC1CCC1)c1ccc(C2=NN3C(C(=O)c4ccc(F)cc4)Oc4ccccc4C3C2)cc1 (centres unmarked) [Compound 38] | < 1 | 1 to 10 |  |
| CN(C)CCN(C)C(=O)c1ccc(C2=NN3C(C(=O)c4ccc(F)cc4)Oc4ccccc4C3C2)cc1 (centres unmarked) [Compound 39] | < 1 | 1 to 10 |  |
| O=C(NCCN1CCCC1)c1ccc(C2=NN3C(C(=O)c4ccc(F)cc4)Oc4ccccc4C3C2)cc1 (centres unmarked) [Compound 40] | 1 to 10 | > 10 |  |
| CC(C)(C)NCCNC(=O)c1ccc(C2=NN3C(C(=O)c4ccc(F)cc4)Oc4ccccc4C3C2)cc1 (centres unmarked) [Compound 41] | 1 to 10 | > 10 |  |
| CCN(CC)CCNC(=O)c1ccc(C2=NN3C(C(=O)c4ccc(F)cc4)Oc4ccccc4C3C2)cc1 (centres unmarked) [Compound 42] | 1 to 10 | > 10 |  |
| CN(C)CCN(Cc1ccccc1)C(=O)c1ccc(C2=NN3C(C(=O)c4ccc(F)cc4)Oc4ccccc4C3C2)cc1 (centres unmarked) [Compound 43] | 1 to 10 | > 10 |  |
| N#Cc1ccc(C(=O)C2Oc3ccccc3C3CC(c4ccc(C(=O)NC5CCCC5)cc4)=NN23)cc1 (centres unmarked) [Compound 44, 4-[5-(4-Cyano-Benzoyl)-1,10b-Dihydro-5H-Pyrazolo[1,5-c][1,3]Benzoxazin-2-yl]-N-Cyclopentyl-Benzamide] |  | < 1 | < 1 |
| CCCc1ccc(C(=O)C2Oc3ccccc3C3CC(c4ccc(C(=O)NC5CCCC5)cc4)=NN23)cc1 (centres unmarked) [Compound 45] | < 1 | < 1 |  |
| CSc1ccc(C(=O)C2Oc3ccccc3C3CC(c4ccc(C(=O)NC5CCCC5)cc4)=NN23)cc1 (centres unmarked) [Compound 46] | < 1 | < 1 |  |
| CCc1ccc(C(=O)C2Oc3ccccc3C3CC(c4ccc(C(=O)NC5CCCC5)cc4)=NN23)cc1 (centres unmarked) [Compound 47] | < 1 | < 1 |  |
| O=C(NC1CCCC1)c1ccc(C2=NN3C(C(=O)c4ccc(N5CCOCC5)cc4)Oc4ccccc4C3C2)cc1 (centres unmarked) [Compound 48] | 1 to 10 | 1 to 10 |  |
| O=C(NC1CCCC1)c1ccc(C2=NN3C(C(=O)c4ccc(N5CCCCC5)cc4)Oc4ccccc4C3C2)cc1 (centres unmarked) [Compound 49] | > 10 |  |  |
| CC(C)(C)c1ccc(C(=O)C2Oc3ccccc3C3CC(c4ccc(C(=O)NC5CCCC5)cc4)=NN23)cc1 (centres unmarked) [Compound 50] | < 1 | < 1 |  |
| COc1ccc(C(=O)C2Oc3ccccc3C3CC(c4ccc(C(=O)NC5CCCC5)cc4)=NN23)cc1 (centres unmarked) [Compound 51] |  | < 1 |  |
| O=C(NC1CCCC1)c1ccc(C2=NN3C(C(=O)c4ccc([N+](=O)[O-])cc4)Oc4ccccc4C3C2)cc1 (centres unmarked) [Compound 52] | < 1 | < 1 |  |
| CS(=O)(=O)c1ccc(C(=O)C2Oc3ccccc3C3CC(c4ccc(C(=O)NC5CCCC5)cc4)=NN23)cc1 (centres unmarked) [Compound 53] | < 1 | < 1 |  |
| O=C(NC1CCCC1)c1ccc(C2=NN3C(C(=O)c4ccc(C5CCCCC5)cc4)Oc4ccccc4C3C2)cc1 (centres unmarked) [Compound 54] | 1 to 10 | 1 to 10 |  |
| O=C(NC1CCCC1)c1ccc(C2=NN3C(C(=O)c4ccc(C(F)(F)F)cc4)Oc4ccccc4C3C2)cc1 (centres unmarked) [Compound 55] | < 1 | < 1 |  |

Reference: patent US7326703B2, “(1,10B-Dihydro-2-(aminocarbonyl-phenyl)-5H-pyrazolo[1,5-c][1,3]benzoxazin-5-yl)phenyl methanone derivatives as HIV viral replication inhibitors” (priority 2004, dated 2008)
